Test results reported in PubChem BioAssay (NCI).
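Dose response: 5 concentrations. Exposure: 48 h. Format: 96-well plates. Endpoint: linear interpolation; highest concentration if not reached. The concentration for full growth arrest is given as TGI.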

What was measured:
Assay in all cases: NCI-60 cell line screen, 48 h
HOP-92 NSCLC = test system: HOP-92 NSCLC
MALME-3M melanoma = test system: MALME-3M melanoma
OVCAR-8 ovarian = test system: OVCAR-8 ovarian
UO-31 renal = test system: UO-31 renal
K-562 leukemia = test system: K-562 leukemia
ACHN renal = test system: ACHN renal
SK-OV-3 ovarian = test system: SK-OV-3 ovarian
SF-268 CNS = test system: SF-268 CNS
RPMI-8226 leukemia = test system: RPMI-8226 leukemia
EKVX NSCLC = test system: EKVX NSCLC
LOX IMVI melanoma = test system: LOX IMVI melanoma
KM20L2 colon = test system: KM20L2 colon
M14 melanoma = test system: M14 melanoma
SNB-19 CNS = test system: SNB-19 CNS
COLO 205 colon = test system: COLO 205 colon
KM12 colon = test system: KM12 colon
HOP-62 NSCLC = test system: HOP-62 NSCLC
SNB-78 CNS = test system: SNB-78 CNS
TK-10 renal = test system: TK-10 renal
SK-MEL-2 melanoma = test system: SK-MEL-2 melanoma
NCI-H23 lung = test system: NCI-H23 lung
SF-295 CNS = test system: SF-295 CNS
M19-MEL melanoma = test system: M19-MEL melanoma
786-0 renal = test system: 786-0 renal
NCI-H522 lung = test system: NCI-H522 lung
NCI-H460 lung = test system: NCI-H460 lung
NCI-H226 lung = test system: NCI-H226 lung
HOP-18 NSCLC = test system: HOP-18 NSCLC
SNB-75 CNS = test system: SNB-75 CNS
HCT-15 colon = test system: HCT-15 colon
MOLT-4 leukemia = test system: MOLT-4 leukemia
OVCAR-3 ovarian = test system: OVCAR-3 ovarian
DMS 114 small cell lung = test system: DMS 114 small cell lung
HL-60(TB) leukemia = test system: HL-60(TB) leukemia
HCC-2998 colon = test system: HCC-2998 colon
CCRF-CEM leukemia = test system: CCRF-CEM leukemia
HCT-116 colon = test system: HCT-116 colon
OVCAR-4 ovarian = test system: OVCAR-4 ovarian
UACC-257 melanoma = test system: UACC-257 melanoma
A549 NSCLC = test system: A549 NSCLC
SK-MEL-5 melanoma = test system: SK-MEL-5 melanoma
SN12C renal = test system: SN12C renal
HT29 colon = test system: HT29 colon
A498 renal = test system: A498 renal
DMS 273 small cell lung = test system: DMS 273 small cell lung
IGROV1 ovarian = test system: IGROV1 ovarian
SK-MEL-28 melanoma = test system: SK-MEL-28 melanoma
SF-539 CNS = test system: SF-539 CNS
SW-620 colon = test system: SW-620 colon
RXF 393 renal = test system: RXF 393 renal
UACC-62 melanoma = test system: UACC-62 melanoma
U251 CNS = test system: U251 CNS
PC-3 prostate = test system: PC-3 prostate
OVCAR-5 ovarian = test system: OVCAR-5 ovarian
CAKI-1 renal = test system: CAKI-1 renal
MCF7 breast = test system: MCF7 breast
DU-145 prostate = test system: DU-145 prostate
MDA-N = test system: MDA-N
T-47D breast = test system: T-47D breast
SR leukemia = test system: SR leukemia
BT-549 breast = test system: BT-549 breast
MDA-MB-435 = test system: MDA-MB-435
HS 578T breast = test system: HS 578T breast
MDA-MB-231 breast = test system: MDA-MB-231 breast
NCI/ADR-RES ovarian = test system: NCI/ADR-RES ovarian

Question: Which results are given for C=C(c1ccccc1N)[C@@]1(O)C[C@H](/C(=C\C)CO)C[C@@H]1NCc1ccccc1?
Answer: TGI (HOP-92 NSCLC): 27.5 µM; TGI (MALME-3M melanoma): 28.4 µM; TGI (OVCAR-8 ovarian): 53.2 µM; TGI (UO-31 renal): 42.3 µM; TGI (K-562 leukemia): 39.5 µM; TGI (ACHN renal): > 100 µM; TGI (SK-OV-3 ovarian): 73.7 µM; TGI (SF-268 CNS): > 100 µM; TGI (RPMI-8226 leukemia): 42.5 µM; TGI (EKVX NSCLC): > 100 µM; TGI (LOX IMVI melanoma): 31.6 µM; TGI (KM20L2 colon): 42.6 µM; TGI (M14 melanoma): 28.5 µM; TGI (SNB-19 CNS): 79.5 µM; TGI (COLO 205 colon): 33 µM; TGI (KM12 colon): 33.7 µM; TGI (HOP-62 NSCLC): > 100 µM; TGI (SNB-78 CNS): 79.7 µM; TGI (TK-10 renal): 44.1 µM; TGI (SK-MEL-2 melanoma): 39.2 µM; TGI (NCI-H23 lung): > 100 µM; TGI (SF-295 CNS): 30.5 µM; TGI (M19-MEL melanoma): 62.1 µM; TGI (786-0 renal): 46 µM; TGI (NCI-H522 lung): 33.4 µM; TGI (NCI-H460 lung): 42.8 µM; TGI (NCI-H226 lung): 33.4 µM; TGI (HOP-18 NSCLC): 52.4 µM; TGI (SNB-75 CNS): 24.6 µM; TGI (HCT-15 colon): > 100 µM; TGI (MOLT-4 leukemia): 39.7 µM; TGI (OVCAR-3 ovarian): 45.8 µM; TGI (DMS 114 small cell lung): 33.9 µM; TGI (HL-60(TB) leukemia): 29.9 µM; TGI (HCC-2998 colon): 30.9 µM; TGI (CCRF-CEM leukemia): 57.2 µM; TGI (HCT-116 colon): 28.7 µM; TGI (OVCAR-4 ovarian): > 100 µM; TGI (UACC-257 melanoma): 32.3 µM; TGI (A549 NSCLC): > 100 µM; TGI (SK-MEL-5 melanoma): 32.8 µM; TGI (SN12C renal): > 100 µM; TGI (HT29 colon): 32.7 µM; TGI (A498 renal): > 100 µM; TGI (DMS 273 small cell lung): 84.5 µM; TGI (IGROV1 ovarian): > 100 µM; TGI (SK-MEL-28 melanoma): 33 µM; TGI (SF-539 CNS): 29.9 µM; TGI (SW-620 colon): 50 µM; TGI (RXF 393 renal): 49.3 µM; TGI (UACC-62 melanoma): > 100 µM; TGI (U251 CNS): 33.3 µM

Question: What does the source list for Cc1ccc(S(=O)(=O)N/N=C/C(Br)=C(/Br)C(=O)O)cc1?
Answer: TGI (HOP-92 NSCLC): 39.6 µM; TGI (MALME-3M melanoma): 14.3 µM; TGI (PC-3 prostate): 29.3 µM; TGI (OVCAR-8 ovarian): 9.93 µM; TGI (UO-31 renal): 20 µM; TGI (ACHN renal): 8.75 µM; TGI (SK-OV-3 ovarian): 34.8 µM; TGI (SF-268 CNS): 30.2 µM; TGI (RPMI-8226 leukemia): 6.18 µM; TGI (OVCAR-5 ovarian): > 55.5 µM; TGI (EKVX NSCLC): 34 µM; TGI (CAKI-1 renal): 18.1 µM; TGI (LOX IMVI melanoma): 11 µM; TGI (M14 melanoma): 18.2 µM; TGI (MCF7 breast): 51 µM; TGI (SNB-19 CNS): 28.8 µM; TGI (COLO 205 colon): 13.3 µM; TGI (KM12 colon): 33.1 µM; TGI (HOP-62 NSCLC): 43.6 µM; TGI (TK-10 renal): 22.9 µM; TGI (SK-MEL-2 melanoma): 35.1 µM; TGI (NCI-H23 lung): 15.2 µM; TGI (SF-295 CNS): 36.3 µM; TGI (DU-145 prostate): 26.9 µM; TGI (786-0 renal): 14.8 µM; TGI (NCI-H460 lung): 44.4 µM; TGI (NCI-H226 lung): 27.9 µM; TGI (MDA-N): 18.8 µM; TGI (SNB-75 CNS): 41 µM; TGI (HCT-15 colon): 8.67 µM; TGI (MOLT-4 leukemia): 3.51 µM; TGI (OVCAR-3 ovarian): 20.2 µM; TGI (HL-60(TB) leukemia): 5.12 µM; TGI (HCC-2998 colon): 15.7 µM; TGI (T-47D breast): 23.3 µM; TGI (CCRF-CEM leukemia): 9.67 µM; TGI (OVCAR-4 ovarian): 19.7 µM; TGI (UACC-257 melanoma): 26.8 µM; TGI (A549 NSCLC): 50.2 µM; TGI (SK-MEL-5 melanoma): 25.8 µM; TGI (SN12C renal): 25.6 µM; TGI (SR leukemia): 1.7 µM; TGI (HT29 colon): 26.8 µM; TGI (A498 renal): 32.3 µM; TGI (IGROV1 ovarian): 34.7 µM; TGI (BT-549 breast): 20.7 µM; TGI (MDA-MB-435): 18.3 µM; TGI (SK-MEL-28 melanoma): 9.65 µM; TGI (SF-539 CNS): 14.5 µM; TGI (SW-620 colon): 14 µM; TGI (RXF 393 renal): 5.17 µM; TGI (UACC-62 melanoma): 22.3 µM; TGI (HS 578T breast): 45.2 µM; TGI (MDA-MB-231 breast): 36 µM; TGI (NCI/ADR-RES ovarian): 17.9 µM; TGI (U251 CNS): 18.8 µM
